Measurements published in patent US5681826A, “Saccharide composition with reduced reducibility, and preparation and uses thereof” (Kabushiki Kaisha Hayashibara Seibutsu Kagaku Kenkyujo, priority 1994, dated 1997).

How the values were obtained:
[1] = system: non-reducing saccharide-forming enzyme; assay type: biochemical, Rhizobium sp. M-11; conditions: for Percentage of remaining substrate on HPLC: non-reducing saccharide-forming enzyme, 48 h, pH 7; for Percentage of newly formed product (P I to P V) on HPLC: 20 w/v % substrate, 2 units/g, 40°C., pH 7.0, 48 hours, label = substrate
Description: An aqueous solution containing 20 w/v % glucose, maltose, maltotriose, maltotetraose, maltopentaose, maltohexaose or maltoheptaose as a substrate was prepared, and mixed with 2 units/g substrate, d.s.b., of the purified enzyme preparation obtained in Experiment 2, and the resultant mixture was subjected to an enzymatic reaction at 40° C. and pH 7.0 for 48 hours. The reaction mixture was desalted and analyzed on high-performance liquid chromatography (HPLC) using "WAKOBEADS WB-T-330 COLUMN", a product of Wako Pure Chemical Industries Ltd., Tokyo, Japan. The HPLC procedure was conducted at ambient temperature and a flow rate of 0.5 ml/min of water as an eluent, and "RI-8012", a differential refractometer commercialized by Tosho Corporation, Tokyo, Japan, was used for analyzing reaction products.

[2] = Maillard reaction with glycine, absorbance at 480 nm; assay type: physicochemical; conditions: one % glycine, 10% saccharide, pH 7.0, 100°C., 90 min, 1-cm cell
Description: A solution, containing one % glycine and 10% of a saccharide preparation PI, P II, P III, P IV or P V in Experiment 4 and 50 mM phosphate buffer (pH 7.0), was kept at 100° C. for 90 min, followed by cooling the resultant solution, and determining for absorbance at a wave length of 480 nm in a 1-cm cell. As a control, maltotriose, maltotetraose, maltopentaose, maltohexaose and maltoheptaose, as a material for the saccharide preparations, were similarly treated as above, and measured for absorbance at a wave length of 480 nm.
A solution, containing one % of glycine, 10% of a high-purity trehalose preparation with a purity of 99.5%, d.s.b., obtained by the method in Experiment 17, and 50 mM phosphate buffer (pH 7.0), was kept at 100° C. for 90 min, followed by cooling the resultant solution and determining the absorbance at a wave length of 480 nm in a 1-cm cell. As a control, glucose and maltose were similarly treated as above, and the resultants were determined for absorbance at a wave length of 480 nm.

| Formation of saccharide from substrate [1] | Percentage of remaining substrate on HPLC [1] [%] | Coloration degree (480 nm) [2] | Percentage of newly formed product (P I to P V) on HPLC [1] [%] | Compound |
| --- | --- | --- | --- | --- |
| – | 7.3 | 0.369 | 92.7 | OC[C@H]1O[C@H](O[C@H]2[C@H](O)[C@@H](O)[C@@H](O[C@H]3[C@H](O)[C@@H](O)[C@@H](O[C@H]4[C@H](O)[C@@H](O)[C@@H](O[C@H]5[C@H](O)[C@@H](O)C(O)O[C@@H]5CO)O[C@@H]4CO)O[C@@H]3CO)O[C@@H]2CO)[C@H](O)[C@@H](O)[C@@H]1O (stereo partly drawn) [Maltopentaose] |
| – | 14.4 | 0.475 | 85.6 | OC[C@H]1O[C@H](O[C@H]2[C@H](O)[C@@H](O)[C@@H](O[C@H]3[C@H](O)[C@@H](O)[C@@H](O[C@H]4[C@H](O)[C@@H](O)C(O)O[C@@H]4CO)O[C@@H]3CO)O[C@@H]2CO)[C@H](O)[C@@H](O)[C@@H]1O (stereo partly drawn) [Maltotetraose] |
| – | 65.0 | 0.623 | 35.0 | OC[C@H]1O[C@H](O[C@H]2[C@H](O)[C@@H](O)[C@@H](O[C@H]3[C@H](O)[C@@H](O)C(O)O[C@@H]3CO)O[C@@H]2CO)[C@H](O)[C@@H](O)[C@@H]1O (stereo partly drawn) [Maltotriose] |

More lines, now with the values behind:

| Compound | Formation of saccharide from substrate [1] | Percentage of remaining substrate on HPLC [1] [%] | Coloration degree (480 nm) [2] | Percentage of newly formed product (P I to P V) on HPLC [1] [%] |
| --- | --- | --- | --- | --- |
| OC[C@H]1O[C@H](O[C@H]2[C@H](O)[C@@H](O)C(O)O[C@@H]2CO)[C@H](O)[C@@H](O)[C@@H]1O (mixture of isomers) [Maltose] | no saccharide is formed | 100.0 | 0.926 | – |
| OC[C@H]1OC(O)[C@H](O)[C@@H](O)[C@@H]1O (stereo partly drawn) [Glucose] | no saccharide is formed | 100.0 | 1.671 | – |
| OC[C@H]1O[C@H](O[C@H]2[C@H](O)[C@@H](O)[C@@H](O[C@H]3[C@H](O)[C@@H](O)[C@@H](O[C@H]4[C@H](O)[C@@H](O)[C@@H](O[C@H]5[C@H](O)[C@@H](O)[C@@H](O[C@H]6[C@H](O)[C@@H](O)[C@@H](O[C@H]7[C@H](O)[C@@H](O)C(O)O[C@@H]7CO)O[C@@H]6CO)O[C@@H]5CO)O[C@@H]4CO)O[C@@H]3CO)O[C@@H]2CO)[C@H](O)[C@@H](O)[C@@H]1O (stereo partly drawn) [Maltoheptaose] | – | 6.7 | 0.271 | 93.4 |
| OC[C@H]1O[C@H](O[C@H]2[C@H](O)[C@@H](O)[C@@H](O[C@H]3[C@H](O)[C@@H](O)[C@@H](O[C@H]4[C@H](O)[C@@H](O)[C@@H](O[C@H]5[C@H](O)[C@@H](O)[C@@H](O[C@H]6[C@H](O)[C@@H](O)C(O)O[C@@H]6CO)O[C@@H]5CO)O[C@@H]4CO)O[C@@H]3CO)O[C@@H]2CO)[C@H](O)[C@@H](O)[C@@H]1O (stereo partly drawn) [Maltohexaose] | – | 6.5 | 0.318 | 93.5 |
